This note sets out measurements from patent US9290468B2, “Benzoheterocyclic compounds and use thereof” (SHANGHAI KECHOW PHARMA, INC., priority 2012, dated 2016).

Usually inhibition stands for the relative decrease from the control value, in per cent. Usually IC50 stands for the concentration that gives 50% inhibition.

Assay [1] has as its system Interleukin-4 (IL-4). Briefly: Inhibition of Interleukin-4 (IL-4), GFP+ of CD4+ spleen cells by flow cytometry. Conditions: Mus musculus, 48 h, read-out: IL-4 inhibition. For orientation: In flow cytometry, cells or beads pass a laser one at a time.
Experimental: Take spleens of BALB/c gene reported mice, culture in RPMI1640 medium (HyClone). • 2. Spleen will be ground into single cell suspension, add red blood cell lysis buffer (sigma) to suspension, for cracking the red blood cells. • 3. […] Dissolved compounds with DMSO and diluted with RPMI1640 medium containing 10% serum, diluted to a final concentration of 200 nM. • 5. […] After mixing, cells were added to 96 well plates, every hole is 100 μL. […] Each compound and control is three-hole wells, cultured at 37° C. for 48 h. • 6. After 48 h, the plates removed from the incubator and each well was collected in the flow tube (BD). • 7. Added cells to ice pre-cooling of PBS (phosphate buffer solution) solution to wash, and in 100 μL of PBS, join the fluorescent antibody CD4 0.5 μL, put in ice 15 min avoid light. • 8. After dyeing wash antibodies with the ice pre-cooling PBS solution. And prepare for flow cytometric detection. • 9. Using flow cytometry (BD FACS calibur) select the CD4+ cell populations, and detect GFP+ cells accounted for the percentage of CD4+ cells, to determine the impact of compounds on IL-4. • 10.
(§1) Control was DMSO and its concentration was same as the final concentration of test compounds.
The subject of assay [2] is TNF-α. Briefly: Inhibition of TNF-α expression, LPS-stimulated spleen cells, ELISA. The note with it: Mus musculus, 24 h, read-out: Inhibition of TNF-α expression. In general terms: In an ELISA, binding on a coated surface is turned into a signal by an enzyme label.
Experimental: Take spleens of BALB/c gene reported mice, cultured in RPMI1640 medium (HyClone). Spleen was ground into single cell suspension, added red blood cell lysis buffer (sigma) to suspension, for cracking the red blood cells • 2. […] Dissolved compounds with DMSO and diluted with RPMI1640 medium containing 10% serum, diluted to a final concentration of 200 nM. • 4. Cells were added to 96 well plates, every hole was 100 μL. […] Each compound and control is three-hole wells. • 5. Cultured at 37° C. for 24 h. • 6. […] Using ELISA (enzyme-linked immunosorbent assay) technique for the determination of the amount of TNF-α in the 24 hours.
as §1
Assay [3] deals with HT29 human colon cancer cells xenograft. Put plainly: In vivo anti-tumor efficacy in HT29 tumor xenograft model. More on the design: species or system BALB/c nude mice. The note with it: 20 mg/kg, oral gavage once daily, after 16 days of treatment, HT29 xenograft in nude mice.
Experimental: Female BALB/c nude mice of 5-6 week old were used for all the in vivo efficacy studies. Mice were injected with HT29 human colon cancer cells at 5×10^6 cells per 100 μL SFM into right flank. Tumor volumes were monitored by caliper measurement using the formula: tumor volume (mm^3)=(w^2×l)/2, where w=width and c=length in mm of the tumor. When the tumor volumes reached 150˜300 mm^3, mice were randomized to treatment groups (5˜10 mice per group) to receive compounds (20 mg/kg doses) or vehicle by oral gavage once daily for 16 days. The tumor volumes and body weight were measured every 2-3 days for data analysis. Tumor growth inhibition (TGI) and body weight changes were calculated compared to the vehicle treated groups.
For assay [4], the system named is A375 cells. Briefly: Cell growth inhibition assay (MTT), A375 cells. The note with it: Homo sapiens, A-375, 72 h. It counts as cell-based.
Experimental: (§2) When the HT29 cells reach their exponential phase of growth, 4×10^3 cells/well were plated into 96-well plates, the edge of plates were filled with sterility PBS, at the same time, filled three holds only with medium as blank group. • 2. The plates were cultured in a humidified 5% CO2 incubator at 37° C. for 24 h, and allowed to proliferate for reaching their exponential phase of growth. • 3. Samples were dissolved in DMSO (dimethyl sulfoxide), the concentration of Samples is 10 mmol/L, 1 mmol/L, 100 μmol/L, 10 μmol/L, 1 μmol/L, 0.1 μmol/L, and further diluted with cell culture medium. The final does concentration were 10 μmol/L, 1 μmol/L, 100 nmol/L, 10 nmol/L, 1 nmol/L, 0.1 nmol/L, 0 nmol/L (the control group). The final DMSO concentration used was 1‰ of total volume of medium in all treatments, including the control group. • Blank: medium • Control: the same dose of DMSO with experiment. Group, the DMSO was diluted with cell perfect culture medium. • Experiment: the cells were treated with the concentration of 10 μmol/L, 1 μmol/L, 100 nmol/L, 10 nmol/L, 1 nmol/L, 0.1 nmol/L. • 4. The plates were cultured in a humidified 5% CO2 incubator at 37° C. for 72 h. 20 μL of 3-(4,5-dimethylthiazol-2-yl)-2,5-diphenyltetrazolium bromide (MTT) reagent (5 mg/mL) in phosphate buffered serum (PBS) was added to each well. • 5. The plates were cultured in a humidified 5% CO2 incubator at 37° C. for 4 h. Subsequently, the solution was aspirated and 150 uL dimethyl sulfoxide was added to release the formed formazan crystals from the living cells mitochondria into the solution. • 6. After moderated shaking for 3 min, absorbance was measured at 490 nm using microplate reader. Methods 2 (A375) • 1. When the A375 cells reach their exponential phase of growth, 5×10^3 cells/well were plated into 96-well plates, the edge of plates were filled with sterility PBS, at the same time, filled three holds only with medium as blank group. • 2. The plates were cultured in a humidified 5% CO2 incubator at 37° C. for 24 h. Allowed to proliferate for reaching their exponential phase of growth. • 3. Samples were dissolved in DMSO (Dimethyl Sulfoxide), the concentration of Samples is 10 mmol/L, 1 mmol/L, 100 μmol/L, 10 μmol/L, 1 μmol/L, 0.1 μmol/L, and further diluted with cell culture medium. The final does concentration were 10 μmol/L, 1 μmol/L, 100 nmol/L, 10 nmol/L, 1 nmol/L, 0.1 nmol/L, 0 nmol/L (the control group). The final DMSO concentration used was 1‰ of total volume of medium in all treatments, including the control group. • Blank: medium • Control: the same dose of DMSO with experiment group, the DMSO was diluted with cell perfect culture medium • Experiment: the cells were treated with the concentration of 10 μmol/L, 1 μmol/L, 100 nmol/L, 10 nmol/L, 1 nmol/L, 0.1 nmol/L • 4. The plates were cultured in a humidified 5% CO2 incubator at 37° C. for 72 h. 20 μL of 3-(4,5-dimethylthiazol-2-yl)-2,5-diphenyltetrazolium bromide (MTT) reagent (5 mg/mL) in phosphate buffered serum (PBS) was added to each well. • 5. The plates were cultured in a humidified 5% CO2 incubator at 37° C. for 4 h. Subsequently, the solution was aspirated and 150 uL dimethyl sulfoxide was added to release the formed formazan crystals from the living cells mitochondria into the solution. • 6. After moderated shaking for 3 min, absorbance was measured at 490 nm using microplate reader.
In assay [5] the test system is COLO 205 tumor xenograft. Put plainly: In vivo anti-tumor efficacy in COLO205 tumor xenograft model. Conditions: 10 mg/kg QD by gavage x 18 days.
Assay [6] has as its system HT29 cells. Briefly: Cell growth inhibition assay (MTT), HT29 cells. It counts as cell-based. Conditions: Homo sapiens, HT-29, 72 h.
Experimental: as §2

Where only a bound is given, the exact number is not on record here.

As to `O=C(NOCCO)c1cc2snnc2c(F)c1Nc1ccc(Br)cc1Cl` [Compound 19, 5-((4-bromo-2-chlorophenyl)amino)-4-fluoro-N-(2-hydroxyethoxy)benzo[d][1,2,3]thiadiazole-6-carboxamide], the inhibition at 0.1 µM in assay [1] is not above 50%; in assay [2], not above 40%. For the same compound, the “Tumor growth inhibition (TGI)” value in assay [3] was found to be 50.9%. The concentration for half-maximal inhibition (IC50) was 49.4 nM in assay [4] and 65.7 nM in assay [6]. Further, in assay [5], the “Tumor growth inhibition vs vehicle control group” value came out at 86.22%.
